{"source": "the NIST ThermoML archive (doi:10.1016/j.jct.2017.03.010)", "conditions": "Liquid, Closed cell (Static) method", "note": "± gives the expanded uncertainty stated by the source."}
{"smiles": "FC(F)C(F)F", "note": "[1,1,2,2-tetrafluoroethane]", "values": [{"measurement": "vapor or sublimation pressure", "setting": "303.15 K", "result": "613.8 ± 2.1", "unit": "kPa"}, {"measurement": "vapor or sublimation pressure", "setting": "313.15 K", "result": "817.1 ± 2.7", "unit": "kPa"}, {"measurement": "vapor or sublimation pressure", "setting": "323.15 K", "result": "1065.9 ± 3.5", "unit": "kPa"}, {"measurement": "vapor or sublimation pressure", "setting": "333.15 K", "result": "1368.5 ± 4.5", "unit": "kPa"}, {"measurement": "vapor or sublimation pressure", "setting": "343.15 K", "result": "1730.2 ± 5.7", "unit": "kPa"}]}
